Measured values published in patent US9476053B2, “Methods and compositions for inhibition of immune responses and autoimmunity” (Dynavax Technologies Corporation, priority 2007, dated 2016).
Like-named read-outs stand apart in the source and are kept apart here.

Legend:
TLR9 = target: T1, TLR9 (Homo sapiens, UniProt Q9NR96); experiment: TLR9 dependent cell responses (statement in description); type: cell-based
T1 sequence (Q9NR96 26-1032): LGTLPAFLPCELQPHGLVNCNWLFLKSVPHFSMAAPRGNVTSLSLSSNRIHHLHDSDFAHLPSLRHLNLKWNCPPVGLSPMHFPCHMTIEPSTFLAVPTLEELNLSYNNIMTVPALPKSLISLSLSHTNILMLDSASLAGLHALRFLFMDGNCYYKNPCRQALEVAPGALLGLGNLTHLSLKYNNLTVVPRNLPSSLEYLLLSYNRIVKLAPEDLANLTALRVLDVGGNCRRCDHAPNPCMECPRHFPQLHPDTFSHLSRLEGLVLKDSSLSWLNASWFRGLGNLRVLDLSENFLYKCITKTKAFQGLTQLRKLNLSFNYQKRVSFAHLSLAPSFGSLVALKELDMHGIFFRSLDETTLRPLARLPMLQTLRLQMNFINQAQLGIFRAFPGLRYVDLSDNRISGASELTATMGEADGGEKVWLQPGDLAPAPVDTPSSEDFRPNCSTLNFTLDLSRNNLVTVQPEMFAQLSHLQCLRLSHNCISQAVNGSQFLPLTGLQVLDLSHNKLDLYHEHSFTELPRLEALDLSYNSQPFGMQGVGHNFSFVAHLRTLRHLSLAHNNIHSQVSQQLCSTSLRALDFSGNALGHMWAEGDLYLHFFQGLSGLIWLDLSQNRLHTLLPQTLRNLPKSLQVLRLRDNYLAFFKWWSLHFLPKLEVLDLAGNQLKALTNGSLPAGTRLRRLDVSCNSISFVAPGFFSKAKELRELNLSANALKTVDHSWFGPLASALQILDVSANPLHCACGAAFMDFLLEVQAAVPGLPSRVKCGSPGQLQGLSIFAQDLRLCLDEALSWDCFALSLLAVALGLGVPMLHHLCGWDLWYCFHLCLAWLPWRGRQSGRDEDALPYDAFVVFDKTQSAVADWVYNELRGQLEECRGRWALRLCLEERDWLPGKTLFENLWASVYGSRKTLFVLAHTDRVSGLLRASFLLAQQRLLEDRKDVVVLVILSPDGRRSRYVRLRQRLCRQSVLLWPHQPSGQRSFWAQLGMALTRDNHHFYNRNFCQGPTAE

TLR7 [1] = target: T2, TLR7 (Homo sapiens, UniProt Q9NYK1); experiment: TLR7 dependent cell responses (statement in description); type: cell-based
T2 sequence (Q9NYK1 27-1049): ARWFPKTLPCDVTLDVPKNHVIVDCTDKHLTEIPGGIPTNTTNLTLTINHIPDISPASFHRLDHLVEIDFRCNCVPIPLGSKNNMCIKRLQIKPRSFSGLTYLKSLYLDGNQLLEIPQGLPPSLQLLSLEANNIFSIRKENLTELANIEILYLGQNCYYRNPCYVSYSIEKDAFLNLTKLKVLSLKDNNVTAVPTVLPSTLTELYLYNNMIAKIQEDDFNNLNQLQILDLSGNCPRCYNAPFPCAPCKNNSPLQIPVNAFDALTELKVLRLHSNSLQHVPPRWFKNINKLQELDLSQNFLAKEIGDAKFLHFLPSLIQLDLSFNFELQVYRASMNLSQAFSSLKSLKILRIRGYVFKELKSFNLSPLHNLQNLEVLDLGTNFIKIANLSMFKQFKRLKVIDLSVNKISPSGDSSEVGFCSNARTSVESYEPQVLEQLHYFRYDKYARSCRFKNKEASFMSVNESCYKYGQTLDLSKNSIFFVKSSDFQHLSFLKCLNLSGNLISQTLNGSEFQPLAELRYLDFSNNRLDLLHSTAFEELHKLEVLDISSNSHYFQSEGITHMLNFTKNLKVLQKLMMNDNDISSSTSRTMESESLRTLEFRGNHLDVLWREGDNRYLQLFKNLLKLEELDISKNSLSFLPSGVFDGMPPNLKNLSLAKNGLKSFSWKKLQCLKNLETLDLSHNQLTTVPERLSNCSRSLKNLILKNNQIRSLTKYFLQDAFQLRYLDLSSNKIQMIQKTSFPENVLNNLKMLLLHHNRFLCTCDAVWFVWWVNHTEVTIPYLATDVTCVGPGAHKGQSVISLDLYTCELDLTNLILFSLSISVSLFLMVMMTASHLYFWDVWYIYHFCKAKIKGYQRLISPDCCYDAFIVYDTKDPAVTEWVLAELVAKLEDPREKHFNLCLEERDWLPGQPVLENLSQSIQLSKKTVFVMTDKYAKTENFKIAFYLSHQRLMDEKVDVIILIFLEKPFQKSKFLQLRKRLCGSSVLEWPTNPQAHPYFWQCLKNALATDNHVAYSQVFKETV

TLR7 [2] = target: T3, TLR7 (Mus musculus, UniProt P58681); experiment: Mouse splenocytes stimulated with R848 (TLR7 ligand), IL-6 by immunoassay; type: cell-based
T3 construct: The dispersed splenocytes were pelleted by centrifugation, then resuspended in fresh medium; endogenous in cells; host or cells: primary splenocytes of BALB/c mice
T3 sequence (P58681 27-1050): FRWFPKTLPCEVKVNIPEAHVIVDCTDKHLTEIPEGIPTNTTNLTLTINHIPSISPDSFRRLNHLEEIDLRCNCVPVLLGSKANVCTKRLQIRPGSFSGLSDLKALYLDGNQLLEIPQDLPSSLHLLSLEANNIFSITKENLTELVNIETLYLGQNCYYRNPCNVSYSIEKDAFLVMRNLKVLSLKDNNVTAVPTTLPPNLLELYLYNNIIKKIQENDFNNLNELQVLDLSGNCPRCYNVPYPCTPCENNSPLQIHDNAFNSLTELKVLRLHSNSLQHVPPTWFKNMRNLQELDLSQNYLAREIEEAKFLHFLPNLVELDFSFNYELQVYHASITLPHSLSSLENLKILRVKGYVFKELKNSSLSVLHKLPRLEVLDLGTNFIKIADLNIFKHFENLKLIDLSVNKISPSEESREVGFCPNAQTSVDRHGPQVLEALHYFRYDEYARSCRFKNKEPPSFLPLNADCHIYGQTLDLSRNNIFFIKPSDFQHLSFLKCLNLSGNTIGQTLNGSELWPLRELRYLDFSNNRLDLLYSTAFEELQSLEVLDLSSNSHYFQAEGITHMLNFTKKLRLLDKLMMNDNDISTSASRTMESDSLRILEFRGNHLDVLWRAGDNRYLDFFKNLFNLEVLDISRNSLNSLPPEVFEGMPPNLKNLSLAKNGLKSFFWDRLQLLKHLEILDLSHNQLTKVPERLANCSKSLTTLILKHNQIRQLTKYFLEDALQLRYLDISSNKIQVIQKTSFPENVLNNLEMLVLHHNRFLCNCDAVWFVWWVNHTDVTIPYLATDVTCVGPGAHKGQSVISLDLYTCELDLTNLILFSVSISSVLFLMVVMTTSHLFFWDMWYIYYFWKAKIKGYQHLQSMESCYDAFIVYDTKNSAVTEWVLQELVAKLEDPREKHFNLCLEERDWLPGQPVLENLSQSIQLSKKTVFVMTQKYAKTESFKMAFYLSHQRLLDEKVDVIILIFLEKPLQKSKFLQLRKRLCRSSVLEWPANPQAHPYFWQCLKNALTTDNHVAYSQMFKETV
Procedure: Modified and unmodified immunoregulatory polynucleotides (IRPs) (i.e., polynucleotides containing at least one modified or unmodified IRS) or control samples were assayed for immunoregulatory (IR) activity of innate immune responses on human and mouse cells.
For mouse cell assays, spleens from 6-12 week-old BALB/c mice spleen were harvested and mechanically dispersed by forcing the digested fragments through metal screens. The dispersed splenocytes were pelleted by centrifugation, then resuspended in fresh medium (RPMI 1640 with 10% fetal calf serum, plus 50 units/mL penicillin, 50 μg/mL streptomycin, 2 mM glutamine, and 0.05 mM β-mercaptoethanol). In a dose-dependent manner, the cells were then stimulated with […] of 1018 ISS (TLR9 ligand; 5′-[…]-3′ (SEQ ID NO:122)) or 1 μM of R848 (TLR7 ligand; a small molecule, an imidazoquinoline also called resiquimod) either alone or in the presence of the tested IRPs. At 48 hours, supernatants were collected and cytokine levels, IL-6, were measured using immunoassays. […]

[3] = Solubility of spacer measured as dialcohol precursor; type: physicochemical; settings: dodecyl spacer measured as dialcohol precursor
Procedure: Thus, the definition of spacers excludes microcarriers or nanocarriers. In addition, a spacer moiety that has low solubility, such as a dodecyl spacer (solubility <5 mg/ml when measured as dialcohol precursor 1,12-dihydroxydodecane) is not preferred because it can reduce the hydrophilicity and activity of the IRC. Preferably, spacer moieties have solubility much greater than 5 mg/ml (e.g., 20 mg/ml, ≦50 mg/ml or 100 mg/ml) when measured as dialcohol precursors.

[4] = system: plasmacytoid dendritic cells (PDCs); type: cell-based, human; settings: read-out: concentration of hydroxycortisone necessary to achieve 50% death of PDCs

5′-TCCTGGAGGGGTTGT-3′ (chemistry not given here) [SEQ ID NO:17]
TLR9 dependent cell responses (TLR9): greater inhibitory activity

5′-TGCTTGCAAGCTAGCAAGCA-3′ (chemistry not given here) [SEQ ID NO:33]
TLR7 dependent cell responses (TLR7 [1]): inhibits

5′-TGCTTGCAAGCTAGCAAGCA-HEG-TCCTGGAGGGGTTGT-3′ (TGCTTGCAAGCTAGCAAGCATCCTGGAGGGGTTGT; Two nucleotide segments joined by a hexaethylene glycol (HEG) spacer, nucleotide chemistry not given here) [SEQ ID NO:68]
TLR7 dependent cell responses (TLR7 [1]): very active in inhibiting
TLR9 dependent cell responses (TLR9): very active in inhibiting

5′-TGCTTGCAAGCTTGCAAGCA-3′ (chemistry not given here) [SEQ ID NO:27]
TLR7 dependent cell responses (TLR7 [1]): inhibits

5′-TGCTTGCAAGCTTGCTAGCA-3′ (chemistry not given here) [SEQ ID NO:34]
TLR7 dependent cell responses (TLR7 [1]): The same is also true
TLR9 dependent cell responses (TLR9): The same is also true

5′-TGCTTGCAAGCTTGCTAGCA-HEG-TCCTGGAGGGGTTGT-3′ (TGCTTGCAAGCTTGCTAGCATCCTGGAGGGGTTGT; Two nucleotide segments joined by a hexaethylene glycol (HEG) spacer, nucleotide chemistry not given here) [SEQ ID NO:69]
TLR7 dependent cell responses (TLR7 [1]): The same is also true
TLR9 dependent cell responses (TLR9): The same is also true

5′-UGC UCC UGG AGG GGU UGU-3′ (DNA UGCUCCUGGAGGGGUUGU; all 2'-O-methyl, backbone not given here) [SEQ ID NO:135, all nucleotides modified with a 2′-O-Me modification]
IL-6 levels compared to unmodified SEQ ID NO:123 (TLR7 [2]): significant decrease

OCCCCCCCCCCCCO [1,12-dihydroxydodecane]
solubility [3]: < 5000 µg/mL

C[C@]12CCC(=O)C=C1CC[C@@H]1[C@@H]2[C@@H](O)C[C@@]2(C)[C@H]1CC[C@]2(O)C(=O)CO [hydroxycortisone, reference compound]
EC50 ([4]; in the presence of CpG-C ISS C274): 2000 nM
EC50 ([4]; in the presence of HSV (HSV-1 KOS strain)): 150 nM
EC50 ([4]; in the presence of HSV and SEQ ID NO:123): 4 nM
EC50 ([4]; in the presence of influenza virus and SEQ ID NO:123): 22 nM
EC50 ([4]; in the presence of influenza virus): 4500 nM
EC50 ([4]; in the presence of the ISS and SEQ ID NO:123): 85 nM
